Measurements published in PMC8776894 (Communications Biology, 2022).
“And” between values parts separate entries of the source, which are not always exact repeats. Equal entries are not always repeated. Where two headings read alike, the source gives them in different places.

Key:
[1] = tested on: platelet aggregation in platelet rich plasma; assay: Platelet aggregation function test; assay type: cell-based; settings: VK 0.0091–0.294 µM; rabbit PRP, ADP 6.07 µmol/L, 5 min maximum aggregation rate
Description: Platelet aggregation function test. Venous blood from (normal healthy rabbits) was collected in 3 mL sodium citrate anticoagulation vacuum plastic tubes. The collected venous blood was centrifuged for 10 min at 100 × g at 4℃ to obtain the upper plasma, and the platelet rich plasma (PRP) was prepared, centrifuged again for 10 min at 2000 × g at 4°C to draw the upper plasma, the platelet poor plasma (PPP) was prepared and […] to a platelet concentration of 3×10^8 cells/ml was counted. The adjusted PRP was placed into a four-channel platelet aggregation instrument (Agg RAM, Helena Laboratories, USA) to determine the 5 min maximum platelet aggregation rate with adenosine diphosphate (ADP), arachidonic acid (AA), thrombin, collagen (COL) , and platelet-activating factor (PAF) or saline as inducers (at a final […]
Acute toxicity test. Systemic acute toxicity test by peritoneal injection was performed according to the guideline provided by Center for Drug Evaluation and Research. In addition to the normal group, male mice were randomly divided into the treated groups received a single dose of 1.5 mg/kg, 6 mg/kg, 24 mg/kg, 96 mg/kg and 384 body weight of VK. […]
The obtained plasma was analyzed using an automatic coagulation apparatus (CA1500).

[2] = tested on: IL-1β, TNF-α, IL-6, IL-8, IL-10 in ischemic cortex; assay: Cytokine ELISA in ischemic cortex; assay type: in vivo, mouse; settings: MCAO/R mice, 48 h
Description: Mice were decapitated under anesthesia at 48 h after MCAO/R. The IL-1β (Cat# 88-5019-88), TNF-α (Cat# 88-7324-22), IL-6 (Cat# 88-7064-88), and IL-8 (Cat# 88-8086-22) were purchased from Thermo Fisher Scientific. The levels of these proteins were measured by enzyme-linked immune sorbent assays (ELISA) kits, according to the manufacturer’s recommendations.

[3] = tested on: pyramidal neurons of mouse neocortex; assay type: in vivo; settings: for Fig.6g mEPSC amplitude per recorded neuron: individual values
rat CNS = settings: injected directly into the rat CNS; cited from earlier work
From the text: B1R and B2R both belong to the G protein-coupled receptor (GPCR) family, with B2R mediating most of the physiological functions of kinin. It has been increasingly appreciated that BK and Lys-BK could act as a ‘double-edged sword’. By inhibiting oxidative stress and apoptosis, the systemic or local delivery of human TK protects against mouse myocardial I/R injury via B2R. Similarly, we described that the neuroprotective effects of VK on stroke in mice was inhibited by HOE140, the specific antagonist of B2R. We also conducted the autodock experiment to evaluate the combination of VK and B2R. The ...

**Q.** With “Gly-Arg-Pro-Hyp-Gly-Phe-Ser-Pro-Phe-Arg-Ile-Asp [VK, Vespakinin-M]” as the substance, how does the “ADP-induced platelet aggregation vs control group” value [1] read?
**A.** Its value is “decreased”.

**Q.** And the “IL-10 level in ischemic cortex vs vehicle” value [2]?
**A.** Its value is “increase in IL-10 levels”.

**Q.** What about the “IL-1β, TNF-α, IL-6 and IL-8 levels in cortex of the ischemic hemisphere vs vehicle” value ([2]; VK 150 and 300 µg/kg) of the same substance?
**A.** Its value is “decreased IL-1β, TNF-α, IL-6, and IL-8 levels”.

**Q.** What about the “action potential threshold of pyramidal neurons vs vehicle” value ([3]; 48 h after MCAO) of the same substance?
**A.** The value was “higher action potential threshold”.

**Q.** And the “Fig.6g mEPSC amplitude per recorded neuron” value ([3]; VK150, n = 14)?
**A.** Its value is 19.084 pA and 16.328 pA and 11.543 pA and 20.277 pA and 16.752 pA and 17.611 pA and 14.33 pA and 14.518 pA and 18.178 pA and 20.574 pA and 16.408 pA and 17.172 pA and 18.064 pA and 16.721 pA.

**Q.** What about the “Fig.6g mEPSC amplitude per recorded neuron” value ([3]; VK300, n = 18) of the same substance?
**A.** The value was 16.409 pA and 16 pA and 15.374 pA and 15.042 pA and 15.977 pA and 15.473 pA and 16.722 pA and 19.242 pA and 17.388 pA and 16.685 pA and 16.328 pA and 14.712 pA and 16.978 pA and 16.137 pA and 19.209 pA and 18.238 pA and 16.732 pA and 16.833 pA.

**Q.** And the “amplitude of mEPSCs” value ([3]; after stroke in mice)?
**A.** The value was “no obvious effects on the amplitude of mEPSCs”.

**Q.** And the “anti-nociceptive potency relative to BK” value (rat CNS)?
**A.** The value was “approximately three times more potent”.
